# Source: patent US20220193209A1, “COMPOSITIONS AND METHODS FOR REACTIVATING LATENT IMMUNODEFICIENCY VIRUS AND/OR TREATING IMMUNODEFICIENCY VIRUS INFECTION” (The J. David Gladstone institutes, a testamentary trust …, priority 2019, published 2022)
# System: HIV LTR
# Test: Chromatin immunoprecipitation (ChIP) at the HIV LTR in J-Lat cells
# Format: cell-based, HIV-1
# Description: J-Lat A2 and A72 cells were treated with TNFα (10 ng/ml) for 18 h. Cells were fixed with 1% formaldehyde (v/v) in fixation buffer (1 mM EDTA, 0.5 mM EGTA, 50 mM Hepes, pH 8.0, 100 mM NaCl), and fixation was stopped after 10 min by addition of glycine to 125 mM. The cell membrane was lysed for 15 min on ice (5 mM Pipes, pH 8.0, 85 mM KCl, 0.5% NP40, protease inhibitors). After washing with nuclear swell buffer (25 mM HEPES, pH 7.5, 4 mM KCl, 1 Mm DTT, 0.5% NP-40, 0.5 mM PMSF) and micrococcal nuclease (MNase) digestion buffer (20 mM Tris pH 7.5, 2.5 mM CaCl2), 5 mM NaCl, 1 mM DTT, 0.5% NP-40), the pellet was resuspended in MNase buffer (15 mM Tris-HCl, pH 7.5, 5 mM MgCl2, 1 mM CaCl2), and 25 mM NaCl). Subsequently, samples were incubated with MNase (New England Biolabs) for 10 min at RT. The reaction was quenched with 0.5 M EDTA and incubated on ice for 5 min. Cells were lysed (1% SDS, 10 mM EDTA, 50 mM Tris-HCl, pH 8.1, protease inhibitors), and chromatin DNA was sheared to 200-1000-bp average size through sonication (Ultrasonic Processor CP-130, Cole Parmer). Cellular debris was pelleted, and the supernatant was recovered. Protein A/G Sepharose beads were blocked with single-stranded salmon sperm DNA and BSA, washed and resuspended in immunoprecipitation buffer. Blocked protein A/G Sepharose beads were added to the digested chromatin fractions and rotated at 4° C. for 2 h to preclear chromatin. Lysates were incubated overnight at 4° C. with 5 μg of FOXO1, RelA, histone H4, H4K20me1, H4K20me2, H4K20me3 antibodies, or IgG control. After incubation with protein A/G agarose beads for 2 h and washing three times with low salt buffer (0.1% SDS, 1% Triton X-100, 2 mM EDTA, 20 mM Tris-HCl, pH 8.1, 150 mM NaCl), one time with high salt buffer (0.1% SDS, 1% Triton X-100, 2 mM EDTA, 20 mM Tris-HCl, pH 8.1, 500 mM NaCl) and twice with TE-buffer (1 mM EDTA, 10 mM Tris-HCl, pH 8.1), chromatin was eluted and recovered with Agencourt AMPure XP beads (Beckman Coulter). Bound chromatin and input DNA were treated with RNase H (New England Biolabs) and Proteinase K (Sigma-Aldrich) at 37° C. for 30 min. Immunoprecipitated chromatin was quantified by real-time PCR using the Maxima SYBR Green qPCR Master Mix (Thermo Scientific) and the ABI 7700 Sequence Detection System (Applied Biosystems). The SDS 2.4 software (Applied Biosystems) was used for analysis. The specificity of each PCR reaction was confirmed by melting curve analysis using the Dissociation Curve software (Applied Biosystems). All chromatin immunoprecipitations and qPCRs were repeated at least three times, and representative results were shown.
# Because ATF4 can be recruited to the HIV LTR (Jiang, G. et al. Downloaded from. MBio 8, 1518-1534 (2018)) and the related human T-cell leukemia virus type 1 (HTLV-1) Reddy, T. et al. Oncogene 14, 2785-2792 (1997)), chromatin immunoprecipitation (ChIP) experiments were performed to test whether ATF4 binds the HIV LTR in response to FOXO1 inhibition. While low levels of ATF4 bound HIV LTR chromatin in untreated J-Lat cells, its recruitment was 3-fold enriched after AS1842856 treatment (FIG. 9, Panel A). […] The nuclear factor of activated T cells (NFAT) can occupy the NF-κB binding sites in the HIV LTR, and is activated through calcium mobilization after T cell activation rather than protein kinase C activation as for NF-κB. […]
compound,measurement,setting,value
"CCn1cc(C(=O)O)c(=O)c2c(N)c(F)c(NC3CCCCC3)cc21 [AS1842856, 5-amino-7-(cyclohexylamino)-1-ethyl-6-fluoro-4-oxo-1,4-dihydro-quinoline-3-carboxylic acid]",NFAT at the HIV LTR,,markedly enriched
same,RNA polymerase II recruitment to the HIV promoter,,marked increase
same,RelA recruitment to the HIV LTR,,not recruited
same,ATF4 recruitment to HIV LTR chromatin,1000 nM vs untreated,3 fold
